Experiments:
Experiment in all cases: KinaseProfiler enzyme profiling
Assay type in all cases: biochemical
PDK1(h) = molecular target: T1, PDK1(h) (Homo sapiens, UniProt O15530)
T1 construct: purchased Eurofins KinaseProfiler
Description: (§1) Enzyme profiling services were provided by KinaseProfiler™ (Eurofin, Brussels, Belgium). The concentration of erianin was 100 nM, and total 70 kinases were tested in this in vitro screening and profiling services (2 repetitions). For more details, refer to the manufacturer’s instructions (www.eurofinsdiscoveryservices.com).

CDK1/cyclinB(h) = molecular target: T2, CDK1/cyclinB(h) (Homo sapiens, UniProt P06493)
T2 construct: purchased Eurofins KinaseProfiler
Description: as §1

IKKα(h) = molecular target: T3, IKKα(h) (Homo sapiens, UniProt O15111)
T3 construct: purchased Eurofins KinaseProfiler
T3 sequence (O15111 1-745): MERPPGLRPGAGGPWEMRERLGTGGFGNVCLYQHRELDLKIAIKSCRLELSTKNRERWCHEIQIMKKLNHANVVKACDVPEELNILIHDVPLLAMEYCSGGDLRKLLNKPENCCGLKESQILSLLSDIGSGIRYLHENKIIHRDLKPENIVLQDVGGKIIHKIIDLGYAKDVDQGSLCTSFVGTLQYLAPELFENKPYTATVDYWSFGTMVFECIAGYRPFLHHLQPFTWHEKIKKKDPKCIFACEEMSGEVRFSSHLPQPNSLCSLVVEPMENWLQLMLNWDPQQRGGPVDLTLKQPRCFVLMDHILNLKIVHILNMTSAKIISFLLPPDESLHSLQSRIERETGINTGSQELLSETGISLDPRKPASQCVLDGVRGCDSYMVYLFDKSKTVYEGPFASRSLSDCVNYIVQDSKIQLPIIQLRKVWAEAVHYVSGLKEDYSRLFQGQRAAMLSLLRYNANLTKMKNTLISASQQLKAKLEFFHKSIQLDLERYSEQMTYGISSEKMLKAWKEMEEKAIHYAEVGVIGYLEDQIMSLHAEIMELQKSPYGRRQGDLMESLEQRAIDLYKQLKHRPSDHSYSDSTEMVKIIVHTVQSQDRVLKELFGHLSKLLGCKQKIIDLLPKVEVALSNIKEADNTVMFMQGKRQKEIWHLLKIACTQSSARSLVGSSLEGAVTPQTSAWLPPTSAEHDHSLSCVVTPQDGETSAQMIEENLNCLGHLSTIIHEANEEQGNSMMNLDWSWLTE
Description: as §1

PAK1(h) = molecular target: T4, PAK1(h) (Homo sapiens, UniProt Q13153)
T4 construct: purchased Eurofins KinaseProfiler
T4 sequence (Q13153 whole entry): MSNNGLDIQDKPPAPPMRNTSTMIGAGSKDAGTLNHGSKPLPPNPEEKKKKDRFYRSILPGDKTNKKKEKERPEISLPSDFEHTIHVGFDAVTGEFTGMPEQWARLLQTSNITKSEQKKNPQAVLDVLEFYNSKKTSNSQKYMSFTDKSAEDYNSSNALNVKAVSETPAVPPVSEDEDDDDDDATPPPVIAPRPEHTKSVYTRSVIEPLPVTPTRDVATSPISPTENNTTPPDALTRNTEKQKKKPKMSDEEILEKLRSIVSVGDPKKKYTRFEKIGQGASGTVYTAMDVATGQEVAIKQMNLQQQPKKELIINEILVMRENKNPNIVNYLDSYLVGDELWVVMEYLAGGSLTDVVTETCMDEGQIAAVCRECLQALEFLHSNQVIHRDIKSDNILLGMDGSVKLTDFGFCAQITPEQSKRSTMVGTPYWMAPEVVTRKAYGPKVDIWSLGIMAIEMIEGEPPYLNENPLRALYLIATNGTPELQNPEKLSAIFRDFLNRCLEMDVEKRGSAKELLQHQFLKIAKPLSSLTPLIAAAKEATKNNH
Description: as §1

JAK1(h) = molecular target: T5, JAK1(h) (Homo sapiens, UniProt P23458)
T5 construct: purchased Eurofins KinaseProfiler
T5 sequence (P23458 whole entry): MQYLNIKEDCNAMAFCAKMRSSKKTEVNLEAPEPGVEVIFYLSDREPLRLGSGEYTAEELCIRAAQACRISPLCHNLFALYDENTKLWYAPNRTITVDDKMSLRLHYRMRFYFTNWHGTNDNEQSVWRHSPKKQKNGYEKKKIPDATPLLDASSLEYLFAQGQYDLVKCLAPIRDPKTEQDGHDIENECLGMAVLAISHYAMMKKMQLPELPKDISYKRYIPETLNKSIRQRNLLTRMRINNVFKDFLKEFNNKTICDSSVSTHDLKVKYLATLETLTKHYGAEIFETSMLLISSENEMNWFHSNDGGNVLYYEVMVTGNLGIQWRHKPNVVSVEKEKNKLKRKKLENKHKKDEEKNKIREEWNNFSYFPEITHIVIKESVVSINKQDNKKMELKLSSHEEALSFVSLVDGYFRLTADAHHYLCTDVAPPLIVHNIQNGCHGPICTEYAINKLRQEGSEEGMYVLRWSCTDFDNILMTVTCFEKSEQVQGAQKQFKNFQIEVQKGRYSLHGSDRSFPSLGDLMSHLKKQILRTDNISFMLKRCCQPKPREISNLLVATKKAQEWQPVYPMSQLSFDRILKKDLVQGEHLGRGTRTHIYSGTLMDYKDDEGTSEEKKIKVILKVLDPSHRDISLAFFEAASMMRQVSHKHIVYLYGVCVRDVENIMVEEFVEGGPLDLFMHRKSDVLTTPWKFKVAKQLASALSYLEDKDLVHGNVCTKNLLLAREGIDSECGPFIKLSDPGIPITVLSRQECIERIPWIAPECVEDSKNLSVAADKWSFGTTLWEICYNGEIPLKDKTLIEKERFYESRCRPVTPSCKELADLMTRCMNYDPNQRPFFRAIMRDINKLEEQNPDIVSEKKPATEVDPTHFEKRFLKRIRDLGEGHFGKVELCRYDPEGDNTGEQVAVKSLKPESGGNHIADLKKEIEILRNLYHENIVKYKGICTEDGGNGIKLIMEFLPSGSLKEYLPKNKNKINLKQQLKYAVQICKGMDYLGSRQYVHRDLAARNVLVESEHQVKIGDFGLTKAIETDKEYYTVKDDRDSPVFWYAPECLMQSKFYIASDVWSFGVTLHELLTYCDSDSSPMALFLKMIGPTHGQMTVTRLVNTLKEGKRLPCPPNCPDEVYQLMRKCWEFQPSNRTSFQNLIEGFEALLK
Description: as §1

MST3(h) = molecular target: T6, MST3(h) (Homo sapiens, UniProt Q9Y6E0)
T6 construct: purchased Eurofins KinaseProfiler
Description: as §1

EGFR(h) = molecular target: T7, EGFR(h) (Homo sapiens, UniProt P00533)
T7 construct: purchased Eurofins KinaseProfiler
Description: as §1

Pim-1(h) = molecular target: T8, Pim-1(h) (Homo sapiens, UniProt P11309)
T8 construct: purchased Eurofins KinaseProfiler
T8 sequence (P11309 whole entry): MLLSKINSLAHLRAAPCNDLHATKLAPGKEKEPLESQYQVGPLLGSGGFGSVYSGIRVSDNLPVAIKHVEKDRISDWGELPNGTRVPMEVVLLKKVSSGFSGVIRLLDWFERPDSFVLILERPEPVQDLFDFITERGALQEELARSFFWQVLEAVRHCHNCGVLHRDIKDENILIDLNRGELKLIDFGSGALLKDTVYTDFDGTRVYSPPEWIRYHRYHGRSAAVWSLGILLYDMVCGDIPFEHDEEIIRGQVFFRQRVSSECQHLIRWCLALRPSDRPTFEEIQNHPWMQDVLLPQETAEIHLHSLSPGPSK
Description: as §1

PAK4(h) = molecular target: T9, PAK4(h) (Homo sapiens, UniProt O96013)
T9 construct: purchased Eurofins KinaseProfiler
T9 sequence (O96013 whole entry): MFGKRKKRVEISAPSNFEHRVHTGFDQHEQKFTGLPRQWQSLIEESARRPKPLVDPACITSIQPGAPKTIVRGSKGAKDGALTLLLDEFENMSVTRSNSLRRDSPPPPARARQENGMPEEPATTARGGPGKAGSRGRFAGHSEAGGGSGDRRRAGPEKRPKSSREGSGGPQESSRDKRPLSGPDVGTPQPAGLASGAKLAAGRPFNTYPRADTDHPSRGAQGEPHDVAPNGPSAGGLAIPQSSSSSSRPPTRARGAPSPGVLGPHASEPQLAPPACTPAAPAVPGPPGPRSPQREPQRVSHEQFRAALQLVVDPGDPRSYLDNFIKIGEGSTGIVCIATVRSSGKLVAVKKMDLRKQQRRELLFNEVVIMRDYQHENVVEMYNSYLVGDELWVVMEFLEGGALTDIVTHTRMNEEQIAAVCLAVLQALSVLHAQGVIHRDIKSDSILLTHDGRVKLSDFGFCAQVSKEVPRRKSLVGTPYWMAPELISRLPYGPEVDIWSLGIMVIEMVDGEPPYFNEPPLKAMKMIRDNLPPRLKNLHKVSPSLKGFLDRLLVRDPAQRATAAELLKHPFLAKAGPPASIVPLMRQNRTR
Description: as §1

EGFR(T790M,L858R)(h) = molecular target: T10, EGFR(T790M,L858R)(h) (Homo sapiens, UniProt P00533, L858R/T790M)
T10 construct: purchased Eurofins KinaseProfiler
Description: as §1

MEK1(h) = molecular target: T11, MEK1(h) (Homo sapiens, UniProt Q02750)
T11 construct: purchased Eurofins KinaseProfiler
T11 sequence (Q02750 whole entry): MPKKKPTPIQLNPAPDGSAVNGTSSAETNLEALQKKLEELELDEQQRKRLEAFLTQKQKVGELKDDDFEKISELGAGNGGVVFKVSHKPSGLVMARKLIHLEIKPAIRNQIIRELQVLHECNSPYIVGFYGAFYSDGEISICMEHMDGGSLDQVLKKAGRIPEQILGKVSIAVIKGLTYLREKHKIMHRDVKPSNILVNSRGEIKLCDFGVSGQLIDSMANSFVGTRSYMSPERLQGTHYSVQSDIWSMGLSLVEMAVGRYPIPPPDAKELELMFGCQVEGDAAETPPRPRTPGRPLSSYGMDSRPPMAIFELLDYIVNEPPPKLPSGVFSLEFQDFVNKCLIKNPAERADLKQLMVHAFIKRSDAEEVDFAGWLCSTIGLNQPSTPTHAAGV
Description: as §1

c-RAF(h) = molecular target: T12, c-RAF(h) (Homo sapiens, UniProt P04049)
T12 construct: purchased Eurofins KinaseProfiler
T12 sequence (P04049 whole entry): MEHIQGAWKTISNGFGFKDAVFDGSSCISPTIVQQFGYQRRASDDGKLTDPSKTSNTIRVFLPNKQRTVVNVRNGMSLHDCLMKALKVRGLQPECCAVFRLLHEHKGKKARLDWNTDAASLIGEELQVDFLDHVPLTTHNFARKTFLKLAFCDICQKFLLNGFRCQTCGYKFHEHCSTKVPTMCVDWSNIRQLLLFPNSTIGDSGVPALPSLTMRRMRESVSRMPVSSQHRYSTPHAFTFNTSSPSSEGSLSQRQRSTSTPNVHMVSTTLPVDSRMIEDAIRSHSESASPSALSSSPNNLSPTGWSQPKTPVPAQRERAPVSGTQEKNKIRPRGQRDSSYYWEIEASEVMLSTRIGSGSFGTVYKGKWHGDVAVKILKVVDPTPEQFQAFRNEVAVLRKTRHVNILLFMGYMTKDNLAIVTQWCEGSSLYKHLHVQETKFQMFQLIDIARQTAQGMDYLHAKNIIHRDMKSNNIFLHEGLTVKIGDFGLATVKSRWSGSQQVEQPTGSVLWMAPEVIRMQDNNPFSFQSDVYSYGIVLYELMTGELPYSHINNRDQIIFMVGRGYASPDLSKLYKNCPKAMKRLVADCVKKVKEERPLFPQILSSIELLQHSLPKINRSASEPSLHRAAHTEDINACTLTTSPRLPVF
Description: as §1

MSK2(h) = molecular target: T13, MSK2(h) (Homo sapiens, UniProt O75676)
T13 construct: purchased Eurofins KinaseProfiler
Description: as §1

PAK2(h) = molecular target: T14, PAK2(h) (Homo sapiens, UniProt Q13177)
T14 construct: purchased Eurofins KinaseProfiler
T14 sequence (Q13177 whole entry): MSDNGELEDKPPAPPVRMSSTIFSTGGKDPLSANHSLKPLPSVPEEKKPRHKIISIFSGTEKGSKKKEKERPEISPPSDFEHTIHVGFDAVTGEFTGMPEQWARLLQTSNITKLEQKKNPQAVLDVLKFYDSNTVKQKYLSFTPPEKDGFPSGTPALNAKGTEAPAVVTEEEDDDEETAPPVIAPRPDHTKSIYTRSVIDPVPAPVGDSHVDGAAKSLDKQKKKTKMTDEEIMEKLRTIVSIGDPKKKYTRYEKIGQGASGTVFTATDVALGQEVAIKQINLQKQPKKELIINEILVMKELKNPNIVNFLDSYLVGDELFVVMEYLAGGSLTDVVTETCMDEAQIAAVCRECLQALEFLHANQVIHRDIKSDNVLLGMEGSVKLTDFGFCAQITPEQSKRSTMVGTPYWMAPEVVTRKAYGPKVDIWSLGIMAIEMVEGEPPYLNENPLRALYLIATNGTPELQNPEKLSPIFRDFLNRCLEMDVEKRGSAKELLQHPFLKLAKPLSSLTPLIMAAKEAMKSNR
Description: as §1

B-Raf(h) = molecular target: T15, B-Raf(h) (Homo sapiens, UniProt P15056)
T15 construct: purchased Eurofins KinaseProfiler
Description: as §1

CDK2/cyclinA(h) = molecular target: T16, CDK2/cyclinA(h) (Homo sapiens, UniProt P24941)
T16 construct: purchased Eurofins KinaseProfiler
Description: as §1

CDK3/cyclinE(h) = molecular target: T17, CDK3/cyclinE(h) (Homo sapiens, UniProt Q00526)
T17 construct: purchased Eurofins KinaseProfiler
Description: as §1

MAPK2(h) = molecular target: T18, MAPK2(h) (Homo sapiens, UniProt P28482)
T18 construct: purchased Eurofins KinaseProfiler
T18 sequence (P28482 whole entry): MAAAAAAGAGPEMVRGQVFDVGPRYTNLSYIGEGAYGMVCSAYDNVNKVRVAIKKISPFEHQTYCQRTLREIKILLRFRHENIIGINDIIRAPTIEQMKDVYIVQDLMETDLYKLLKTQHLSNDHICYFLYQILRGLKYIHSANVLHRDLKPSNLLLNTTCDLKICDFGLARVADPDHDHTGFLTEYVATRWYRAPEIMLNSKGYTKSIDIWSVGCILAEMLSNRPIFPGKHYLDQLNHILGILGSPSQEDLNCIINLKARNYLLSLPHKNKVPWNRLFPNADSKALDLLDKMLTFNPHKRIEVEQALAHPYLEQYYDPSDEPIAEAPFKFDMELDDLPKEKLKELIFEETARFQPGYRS
Description: as §1

PKA(h) = molecular target: T19, PKA(h) (Homo sapiens, UniProt P17612)
T19 construct: purchased Eurofins KinaseProfiler
Description: as §1

CDK9/cyclin T1(h) = molecular target: T20, CDK9/cyclin T1(h) (Homo sapiens, UniProt P50750)
T20 construct: purchased Eurofins KinaseProfiler
Description: as §1

MAPK1(h) = molecular target: T21, MAPK1(h) (Homo sapiens, UniProt P27361)
T21 construct: purchased Eurofins KinaseProfiler
T21 sequence (P27361 whole entry): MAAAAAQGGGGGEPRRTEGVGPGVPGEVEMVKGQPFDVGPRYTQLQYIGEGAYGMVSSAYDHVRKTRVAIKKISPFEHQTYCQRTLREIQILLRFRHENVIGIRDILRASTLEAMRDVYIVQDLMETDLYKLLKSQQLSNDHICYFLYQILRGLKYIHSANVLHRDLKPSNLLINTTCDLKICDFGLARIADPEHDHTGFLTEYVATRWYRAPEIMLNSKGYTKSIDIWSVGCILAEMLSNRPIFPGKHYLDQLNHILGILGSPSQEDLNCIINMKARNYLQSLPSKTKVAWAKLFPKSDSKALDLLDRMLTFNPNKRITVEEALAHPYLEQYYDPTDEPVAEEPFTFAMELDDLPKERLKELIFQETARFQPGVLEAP
Description: as §1

p70S6K(h) = molecular target: T22, p70S6K(h) (Homo sapiens, UniProt P23443)
T22 construct: purchased Eurofins KinaseProfiler
Description: as §1

ATM(h) = molecular target: T23, ATM(h) (Homo sapiens, UniProt Q13315)
T23 construct: purchased Eurofins KinaseProfiler
Description: as §1

AMPKα2(h) = molecular target: T24, AMPKα2(h) (Homo sapiens, UniProt P54646)
T24 construct: purchased Eurofins KinaseProfiler
Description: as §1

JAK2(h) = molecular target: T25, JAK2(h) (Homo sapiens, UniProt O60674)
T25 construct: purchased Eurofins KinaseProfiler
Description: as §1

SAPK3(h) = molecular target: T26, SAPK3(h) (Homo sapiens, UniProt P53778)
T26 construct: purchased Eurofins KinaseProfiler
Description: as §1

PKBα(h) = molecular target: T27, PKBα(h) (Homo sapiens, UniProt P31749)
T27 construct: purchased Eurofins KinaseProfiler
Description: as §1

PKCα(h) = molecular target: T28, PKCα(h) (Homo sapiens, UniProt P17252)
T28 construct: purchased Eurofins KinaseProfiler
Description: as §1

AMPKα1(h) = molecular target: T29, AMPKα1(h) (Homo sapiens, UniProt Q13131)
T29 construct: purchased Eurofins KinaseProfiler
Description: as §1

JNK3(h) = molecular target: T30, JNK3(h) (Homo sapiens, UniProt P53779)
T30 construct: purchased Eurofins KinaseProfiler
Description: as §1

SAPK4(h) = molecular target: T31, SAPK4(h) (Homo sapiens, UniProt O15264)
T31 construct: purchased Eurofins KinaseProfiler
Description: as §1

mTOR(h) = molecular target: T32, mTOR(h) (Homo sapiens, UniProt P42345)
T32 construct: purchased Eurofins KinaseProfiler
Description: as §1

## COc1cc2oc(-c3ccc(O)c(O)c3)cc(=O)c2c(O)c1OC [Cirsiliol]
PDK1(h)
  activity at 10 µM: 107%
CDK1/cyclinB(h)
  activity at 10 µM: 97%
IKKα(h)
  activity at 10 µM: 102%
PAK1(h)
  activity at 10 µM: 104%
JAK1(h)
  activity at 10 µM: 99%
MST3(h)
  activity at 10 µM: 103%
EGFR(h)
  activity at 10 µM: 98%
Pim-1(h); 10 µM
  activity at 10 µM: 112%
PAK4(h)
  activity at 10 µM: 104%
EGFR(T790M,L858R)(h); 10 µM
  activity at 10 µM: 101%
MEK1(h)
  activity at 10 µM: 105%
c-RAF(h); 10 µM
  activity at 10 µM: 104%
MSK2(h)
  activity at 10 µM: 108%
PAK2(h)
  activity at 10 µM: 111%
B-Raf(h); 10 µM
  activity at 10 µM: 104%
CDK2/cyclinA(h)
  activity at 10 µM: 91%
CDK3/cyclinE(h)
  activity at 10 µM: 97%
MAPK2(h)
  activity at 10 µM: 114%
PKA(h)
  activity at 10 µM: 100%
CDK9/cyclin T1(h)
  activity at 10 µM: 98%
MAPK1(h)
  activity at 10 µM: 103%
p70S6K(h)
  activity at 10 µM: 95%

## COc1ccc(CCc2cc(OC)c(OC)c(OC)c2)cc1O [Erianin]
ATM(h)
  activity at 0.1 µM: 111%
AMPKα2(h)
  activity at 0.1 µM: 118%
JAK2(h)
  activity at 0.1 µM: 107%
IKKα(h)
  activity at 0.1 µM: 108%
PAK1(h)
  activity at 0.1 µM: 109%
JAK1(h)
  activity at 0.1 µM: 117%
SAPK3(h)
  activity at 0.1 µM: 112%
EGFR(h)
  activity at 0.1 µM: 105%
PKBα(h)
  activity at 0.1 µM: 105%
Pim-1(h)
  activity at 0.1 µM: 98%
PKCα(h)
  activity at 0.1 µM: 89%
AMPKα1(h)
  activity at 0.1 µM: 108%
PAK4(h)
  activity at 0.1 µM: 93%
EGFR(T790M,L858R)(h)
  activity at 0.1 µM: 120%
MEK1(h)
  activity at 0.1 µM: 99%
c-RAF(h)
  activity at 0.1 µM: 85%
JNK3(h)
  activity at 0.1 µM: 111%
PAK2(h)
  activity at 0.1 µM: 107%
B-Raf(h)
  activity at 0.1 µM: 103%
CDK2/cyclinA(h)
  activity at 0.1 µM: 94%
SAPK4(h)
  activity at 0.1 µM: 103%
mTOR(h)
  activity at 0.1 µM: 104%
MAPK2(h)
  activity at 0.1 µM: 104%
CDK9/cyclin T1(h)
  activity at 0.1 µM: 97%
MAPK1(h)
  activity at 0.1 µM: 92%

## C=C1C(=O)[C@]23[C@H](O)[C@H]1CC[C@H]2[C@@]12CO[C@]3(O)[C@@H](O)[C@@H]1C(C)(C)CC[C@@H]2O [Oridonin]
ATM(h); 10 µM
  activity at 10 µM: 71%
AMPKα2(h); 10 µM
  activity at 10 µM: 72%
JAK2(h); 10 µM
  activity at 10 µM: 90%
PDK1(h)
  activity at 10 µM: 69%
CDK1/cyclinB(h)
  activity at 10 µM: 63%
IKKα(h)
  activity at 10 µM: 80%
PAK1(h)
  activity at 10 µM: 110%
JAK1(h)
  activity at 10 µM: 75%
MST3(h)
  activity at 10 µM: 74%
SAPK3(h); 10 µM
  activity at 10 µM: 122%
EGFR(h)
  activity at 10 µM: 91%
PKBα(h); 10 µM
  activity at 10 µM: 90%
PKCα(h); 10 µM
  activity at 10 µM: 69%
AMPKα1(h); 10 µM
  activity at 10 µM: 75%
PAK4(h)
  activity at 10 µM: 86%
MEK1(h)
  activity at 10 µM: 92%
MSK2(h)
  activity at 10 µM: 69%
JNK3(h); 10 µM
  activity at 10 µM: 54%
PAK2(h)
  activity at 10 µM: 99%
CDK2/cyclinA(h)
  activity at 10 µM: 67%
SAPK4(h); 10 µM
  activity at 10 µM: 106%
mTOR(h); 10 µM
  activity at 10 µM: 81%
CDK3/cyclinE(h)
  activity at 10 µM: 70%
MAPK2(h)
  activity at 10 µM: 82%
PKA(h)
  activity at 10 µM: 108%
CDK9/cyclin T1(h)
  activity at 10 µM: 59%
MAPK1(h)
  activity at 10 µM: 63%
p70S6K(h)
  activity at 10 µM: 53%
